Laboratory results as given in WO2015077660A1, “Enzyme reactor system enabling enhanced enzymatic digestion, analyte solubility and improved mass spectrometric compatibility” (priority 2013, dated 2014).

Key:
[1] = tested on: trypsin; assay: Insulin digestion in immobilized enzyme reactor, buffer screening (Table 7); type: biochemical, porcine; conditions: IMER, 70°C, 60 s
[2] = tested on: T1, porcine trypsin; assay: Insulin digestion by trypsin in solution, buffer screening (Table 9); type: biochemical; conditions: 37°C, 18 h
T1 construct: purchased

## CO [MeOH, methanol]
[1]; 5%
  Digested: 1511720
  Peptide: 627591
  Undigested: 2902781
[1]; 10%
  Digested: 1001203
  Peptide: 417070
  Undigested: 3946896
[1]; 15%
  Digested: 675569
  Peptide: 277958
  Undigested: 5012221
[1]; 20%
  Digested: 518131
  Peptide: 213935
  Undigested: 5268985
[2]; 5%
  Digested: 1415794
  Peptide: 576911
  Undigested: 5318134
[2]; 10%
  Digested: 216568
  Peptide: 88569
  Undigested: 4800365
[2]; 15%
  Digested: 1700395
  Peptide: 666807
  Undigested: 4218905
[2]; 20%
  Digested: 1986863
  Peptide: 756073
  Undigested: 3394642

## [Cl-].[Na+] [NaCl]
[1]; 0.1M
  Digested: 2262987
  Peptide: 925368
  Undigested: 1557233
[1]; 0.25M
  Digested: 2119184
  Peptide: 866812
  Undigested: 2102900
[1]; 0.5M
  Digested: 2146822
  Peptide: 862093
  Undigested: 1679944
[1]; 1M
  Digested: 2363025
  Peptide: 944511
  Undigested: 1205692
[1]; 2M
  Digested: 2660004
  Peptide: 966823
  Undigested: 332026
[2]; 0.1M
  Digested: 1527956
  Peptide: 648564
  Undigested: 3295178
[2]; 0.25M
  Digested: 1178089
  Peptide: 484049
  Undigested: 3432057
[2]; 0.5M
  Digested: 884946
  Peptide: 350436
  Undigested: 4517343
[2]; 1M
  Digested: 670170
  Peptide: 249834
  Undigested: 4981512
[2]; 2M
  Digested: 378641
  Peptide: 111600
  Undigested: 4745627

## C[C@H](CCC(=O)[O-])[C@H]1CC[C@H]2[C@@H]3CC[C@@H]4C[C@H](O)CC[C@]4(C)[C@H]3C[C@H](O)[C@]12C.[Na+] [SDC, sodium deoxycholate]
[1]; 0.1%
  Digested: 296346
  Peptide: 101770
  Undigested: 4216641
[1]; 0.2%
  Digested: 94589
  Peptide: 30902
  Undigested: 5010947
[1]; 0.5%
  Digested: 12088
  Peptide: 1351
  Undigested: 1648635
[1]; 1%
  Digested: 8134
  Peptide: 1275
  Undigested: 284843
[2]; 0.1%
  Digested: 1284656
  Peptide: 5961
  Undigested: 3123245
[2]; 0.2%
  Digested: 12332
  Peptide: 480241
  Undigested: 29962
[2]; 0.5%
  Digested: 114517
  Peptide: 361200
  Undigested: 499326
[2]; 1%
  Digested: 124131
  Peptide: 239833
  Undigested: 1149062

## OCC(F)(F)F [TFE]
[1]; 5%
  Digested: 513982
  Peptide: 208344
  Undigested: 4502764
[1]; 10%
  Digested: 95904
  Peptide: 39996
  Undigested: 5112793
[1]; 15%
  Digested: 40955
  Peptide: 18047
  Undigested: 5055881
[1]; 20%
  Digested: 26014
  Peptide: 9756
  Undigested: 5626809
[2]; 5%
  Digested: 710737
  Peptide: 271046
  Undigested: 4417966
[2]; 10%
  Digested: 512715
  Peptide: 201962
  Undigested: 4499811
[2]; 15%
  Digested: 571716
  Peptide: 224520
  Undigested: 4785656
[2]; 20%
  Digested: 661078
  Peptide: 253234
  Undigested: 4907160

## NC(CO)(CO)CO [Tris]
[1]; 0.05M
  Digested: 2479332
  Undigested: 893529
[1]; 0.1M
  Digested: 2540889
  Undigested: 990996
[1]; 0.25M
  Digested: 2440181
  Undigested: 1291934
[1]; 0.5M
  Digested: 2205308
  Peptide: 879474
  Undigested: 1490447
[1]; 1M
  Digested: 1923103
  Peptide: 745060
  Undigested: 2177969
[2]; 0.05M
  Digested: 1995427
  Peptide: 860551
  Undigested: 3125626
[2]; 0.1M
  Digested: 2524942
  Peptide: 1101647
  Undigested: 2122289
[2]; 0.25M
  Digested: 3462464
  Peptide: 1564913
  Undigested: 997441
[2]; 0.5M
  Digested: 3218135
  Peptide: 1297337
  Undigested: 780101
[2]; 1M
  Digested: 3458079
  Peptide: 1431917
  Undigested: 1156801
